Among the test systems are SF-539; OVCAR-3; PC-3; HCT-15; TK-10; UACC-62; 786-0; NCI-H226; HT-29; CCRF-CEM; SF-295; BT-549; SK-MEL-5; SN12C; SR; SNB-19; NCI-H460; KM12; LOX IMVI.
Common to all, as to test: NCI anticancer screen, dose series, 48 h

The structures appear in SMILES notation.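 The compound was tested at five concentrations on cells cultured in 96-well plates, with a 48-hour exposure period. GI50 = concentration required for 50% inhibition of growth.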 Activity calls are given as the source filed them. Cut-off read from the data, not from the text of the source: active = GI50 up to about 1.1 µM and inactive = higher. Some results are limits rather than exact numbers.

In the case of `CC1(C)Oc2ccc3c(=O)c(-c4ccccc4)c(-c4ccccc4)oc3c2C1C(=O)O` (centres undefined), the GI50 with SF-539 is > 100 µM (inactive); in the assay on OVCAR-3, > 100 µM (inactive); with PC-3, > 100 µM (inactive); with HCT-15, 33.3 µM; in the assay on TK-10, > 100 µM (inactive); in the assay with UACC-62, > 100 µM (inactive). The GI50 in the assay on 786-0, in the assay with NCI-H226, in the assay on HT-29, in the assay on CCRF-CEM, in the assay with SF-295 and with BT-549 was > 100 µM (inactive) each time. The GI50 in the assay on SK-MEL-5 and in the assay on SN12C was > 100 µM (inactive) each time.

For the compound `c1ccc2sc(C3(N4CCCC4)CCCCCC3)cc2c1`, the GI50 in the assay on SF-539 was 19.6 µM (inactive); in the assay with OVCAR-3, 14.3 µM (inactive); in the assay on HCT-15, 17.5 µM; in the assay on SR, 18.8 µM (inactive); in the assay with TK-10, 17.4 µM (inactive); in the assay on UACC-62, 16.2 µM (inactive). The GI50 with SNB-19 was 14 µM (inactive); in the assay on NCI-H460, 13.3 µM (inactive); in the assay with KM12, 12.9 µM (inactive); in the assay with LOX IMVI, 14.7 µM (inactive); in the assay on 786-0 it was 14.1 µM (inactive); in the assay on NCI-H226, 21.3 µM (inactive). Further, the GI50 with HT-29 is 4.1 µM (inactive); with CCRF-CEM it was 10.7 µM (inactive); in the assay on SF-295, 15 µM (inactive); in the assay with BT-549, 21.4 µM (inactive); in the assay on SK-MEL-5 it was 16.6 µM (inactive); in the assay on SN12C it was 15.3 µM (inactive).

For the compound `CCOC(=O)c1[nH]c2nc(SC)nc(Nc3ccccc3Cl)c2c1N`, the GI50 was 20.7 µM (inactive) in the assay with OVCAR-3; 15.7 µM (inactive) in the assay on PC-3; 35.3 µM with HCT-15; 22.5 µM (inactive) in the assay with TK-10; 16.6 µM (inactive) in the assay with UACC-62; 17.5 µM (inactive) in the assay on SNB-19. Moreover, the GI50 in the assay on NCI-H460 was 11.6 µM (inactive); in the assay on KM12, 31.3 µM (inactive); in the assay with LOX IMVI it was 11.8 µM (inactive); with 786-0 it was 20.2 µM (inactive); with NCI-H226, 15.3 µM (inactive); in the assay on HT-29 it was 11.7 µM (inactive). In addition, the GI50 was 15.3 µM (inactive) with CCRF-CEM; 21 µM (inactive) in the assay with SF-295; 20 µM (inactive) in the assay on BT-549; 6.21 µM (inactive) in the assay on SK-MEL-5; 36.2 µM (inactive) with SN12C.

Consider `COc1cc(OCCN(C)C)c2[nH]c(C(=O)N3CC(CCl)c4c3cc(N)c3ccccc43)cc2c1` (centres undefined), for which the GI50 with SF-539 is < 0.01 µM (active); in the assay on OVCAR-3, < 0.01 µM (active); with PC-3, < 0.01 µM (active); in the assay on HCT-15, less than 0.01 µM; in the assay on TK-10 it was < 0.01 µM (active); in the assay on UACC-62, < 0.01 µM (active). Moreover, the GI50 in the assay with SNB-19, in the assay with NCI-H460, in the assay on KM12, in the assay on LOX IMVI, in the assay on 786-0 and in the assay with NCI-H226 was < 0.01 µM (active) each time. For the same compound, the GI50 was < 0.01 µM (active) in the assay on HT-29; < 0.01 µM (active) with CCRF-CEM; < 0.01 µM (active) with SF-295; 0.0268 µM (active) with BT-549; < 0.01 µM (active) in the assay on SK-MEL-5; < 0.01 µM (active) in the assay on SN12C.

Turning to `O=C(NCC1Nc2ccncc2S(=O)(=O)N1)c1ccc(Br)cc1` (centres undefined), the GI50 in the assay on OVCAR-3 was 30.8 µM (inactive); with PC-3, 17.7 µM (inactive); in the assay on HCT-15, 42.5 µM; in the assay on TK-10, > 100 µM (inactive); in the assay on UACC-62, 58.7 µM (inactive); in the assay on SNB-19, 81.3 µM (inactive). The GI50 in the assay with NCI-H460 is > 100 µM (inactive); in the assay with KM12, 40.6 µM (inactive); with LOX IMVI, 38.6 µM (inactive); in the assay with 786-0, > 100 µM (inactive); with NCI-H226 it was > 100 µM (inactive); in the assay with HT-29 it was > 100 µM (inactive). The GI50 with SF-295 is > 100 µM (inactive); in the assay with BT-549 it was 69.7 µM (inactive); in the assay on SK-MEL-5 it was > 100 µM (inactive); in the assay on SN12C, > 100 µM (inactive).

Turning to `C[C@H](C/C=C/C(C)(C)O)[C@H]1CC[C@@]2(C)[C@@H]3CC[C@H]4C(C)(C)[C@@H](O)CC[C@@]45C[C@@]35CC[C@]12C`, the GI50 was 16.8 µM (inactive) with SF-539; 50.5 µM (inactive) with OVCAR-3; 26.3 µM (inactive) in the assay with PC-3; 17.1 µM in the assay on HCT-15; 13 µM (inactive) in the assay with TK-10; 26.1 µM (inactive) in the assay with UACC-62. Also, the GI50 was 25.5 µM (inactive) in the assay on SNB-19; 23 µM (inactive) in the assay with NCI-H460; 24.7 µM (inactive) in the assay on KM12; 11.7 µM (inactive) in the assay on LOX IMVI; 20.9 µM (inactive) in the assay with 786-0; 17.1 µM (inactive) in the assay on NCI-H226. Also, the GI50 in the assay with HT-29 was 26 µM (inactive); in the assay with SF-295, 16.6 µM (inactive); in the assay on BT-549, 34.1 µM (inactive); with SN12C, 13 µM (inactive).

For `C/C=C(C)/C=C/CC(C)CCC=C(C)C` (centres undefined), the GI50 in the assay on SF-539 was > 100 µM (inactive); with OVCAR-3, > 100 µM (inactive); in the assay with HCT-15, more than 100 µM; in the assay on SR, > 100 µM (inactive); in the assay on TK-10, > 100 µM (inactive); with UACC-62 it was > 100 µM (inactive). For the same compound, the GI50 in the assay with SNB-19, with NCI-H460, in the assay with KM12, in the assay with LOX IMVI, in the assay with 786-0 and in the assay with NCI-H226 was > 100 µM (inactive) each time. The GI50 in the assay with HT-29, in the assay on CCRF-CEM, in the assay on SF-295, in the assay on BT-549, with SK-MEL-5 and with SN12C was > 100 µM (inactive) each time.

As to `O=C(O)C1CCCCC1c1c2ccc(=O)cc-2oc2cc(O)ccc12` (centres undefined), the GI50 with SF-539 is 18 µM (inactive); with OVCAR-3 it was 24.4 µM (inactive); with PC-3, 28.8 µM (inactive); in the assay on HCT-15, 34.6 µM; in the assay on TK-10, 52.1 µM (inactive); in the assay on UACC-62, 25.9 µM (inactive). For the same compound, the GI50 with SNB-19 was 48.6 µM (inactive); with NCI-H460 it was 32.4 µM (inactive); in the assay on KM12, 19.9 µM (inactive); in the assay on LOX IMVI, 28.1 µM (inactive); in the assay on 786-0 it was 32.1 µM (inactive); with HT-29, 29.3 µM (inactive). Also, the GI50 in the assay with CCRF-CEM was 42.8 µM (inactive); in the assay on SF-295 it was 31.7 µM (inactive); in the assay on BT-549 it was 47.6 µM (inactive); in the assay with SK-MEL-5 it was 36.2 µM (inactive); in the assay on SN12C, 41.7 µM (inactive).

For the compound `COc1ccc(Oc2cccc(/C=C3/C(=O)Nc4ccccc43)c2)cc1`, the GI50 was 18.9 µM (inactive) in the assay with SF-539; 7.89 µM (inactive) in the assay on OVCAR-3; 5.98 µM (inactive) with PC-3; 10.2 µM in the assay on HCT-15; 15.2 µM (inactive) in the assay on TK-10; 6.1 µM (inactive) with SNB-19. Moreover, the GI50 was 11.3 µM (inactive) in the assay on NCI-H460; 5.02 µM (inactive) with KM12; 11.8 µM (inactive) with 786-0; 3.73 µM (inactive) in the assay on HT-29; 4.21 µM (inactive) in the assay on CCRF-CEM; 7.01 µM (inactive) in the assay on SF-295. Also, the GI50 with BT-549 was 14.8 µM (inactive); in the assay with SK-MEL-5, 2.62 µM (inactive); in the assay on SN12C, 10.9 µM (inactive).

Consider `CSc1nc(O)c(C#N)c(-c2ccccc2)n1`, for which the GI50 is > 100 µM (inactive) with SF-539; > 100 µM (inactive) in the assay with OVCAR-3; > 100 µM (inactive) with PC-3; more than 100 µM in the assay with HCT-15; > 100 µM (inactive) in the assay with TK-10; > 100 µM (inactive) in the assay on UACC-62. The GI50 with SNB-19, with NCI-H460, in the assay with KM12, in the assay on 786-0, with NCI-H226 and in the assay on HT-29 was > 100 µM (inactive) throughout. For the same compound, the GI50 in the assay on CCRF-CEM, with SF-295, with BT-549, with SK-MEL-5 and in the assay on SN12C was > 100 µM (inactive) throughout.

Turning to `Cc1n[nH]c(=O)n1N1C(=O)CCCC1=O`, the GI50 in the assay with SF-539, in the assay with OVCAR-3, in the assay on PC-3, with TK-10, with UACC-62 and in the assay on 786-0 was > 100 µM (inactive) each time. The GI50 in the assay on NCI-H226, in the assay on HT-29, with CCRF-CEM, in the assay with SF-295, in the assay on BT-549 and in the assay on SK-MEL-5 was > 100 µM (inactive) in each case. Also, the GI50 in the assay on SN12C was > 100 µM (inactive).

For `CCCCCCC(C)CC(CCCCCC)NCCOC(=O)c1ccc([N+](=O)[O-])cc1` (centres undefined), the GI50 is 13 µM (inactive) with SF-539; 10.1 µM with HCT-15; 10.6 µM (inactive) in the assay on TK-10; 13 µM (inactive) in the assay with UACC-62; 15.6 µM (inactive) in the assay on SNB-19; 10.1 µM (inactive) in the assay on KM12. The GI50 was 4.12 µM (inactive) with LOX IMVI; 12.6 µM (inactive) with 786-0; 13.9 µM (inactive) in the assay on NCI-H226; 4.04 µM (inactive) in the assay with HT-29; 4.52 µM (inactive) with CCRF-CEM; 15.2 µM (inactive) in the assay with SF-295. In addition, the GI50 is 15.4 µM (inactive) in the assay with BT-549, 9.68 µM (inactive) with SK-MEL-5 and 10.7 µM (inactive) in the assay with SN12C.

For the origin of these results see ChEMBL document CHEMBL1201862, “PubChem BioAssay data set” (2004).
